Laboratory results reported in patent US20260085081A1, “PHOSPHATIDYLAMINE COMPOUNDS INCLUDING A PLURALITY OF TERTIARY AMINO GROUP STRUCTURES AND COMPOSITIONS THEREOF” (PEKING UNIVERSITY, priority 2022, published 2026).

Columns and labels:
most cells and tissues = details: reported; cited from earlier work
[1] = Particle size of lipid nanoparticles (dynamic light scattering); type: physicochemical
Method: The particle size of the lipid nanoparticles and the distribution (size, PDI) were determined by Malvern Zetasizer Nano ZS laser particle sizer according to dynamic light scattering (DLS). The samples were diluted 100-fold with PBS before measurement, and 1 mL was taken for measurement. The measurement was repeated three times in parallel for each sample.

[2] = tested on: human hepatocellular carcinoma HepG2 cells; assay: Transfection efficiency of lipid nanoparticles in HepG2 cells; type: cell-based
Method: (§1) Determination process included: preparing a 96-well plate, inoculating cells (4000 cells/well), adding 100 μL of medium, incubating at 37° C. overnight; after 24 h, adding lipid nanoparticles diluted with medium (achieving the final concentration of RNA of 10 µg/mL), incubating at 37° C. for 24 h, and then adding 50 μL of specialized luciferase substrate to each well, followed by detection using by a microplate reader (chemiluminescence).
FIG. 2A and FIG. 2B illustrate encapsulation efficiency of lipid nanoparticles and cell transfection efficiency according to some embodiments of the present disclosure. FIG. 2A is the encapsulation efficiency of lipid nanoparticles in the DOPE/DSPC groups, and FIG. 2B is the transfection efficiency in HepG2 cells. PL1, PL10, and PL12 from the DOPE group, and PL11 and PL12 from the DSPC group are selected to further explore the transfection efficiency in human hepatocellular carcinoma HepG2 cells. LNP is first prepared using microfluidic approach (Example 44) and the encapsulation efficiency of LNP is measured (Example 46), and the results are shown in FIG. 2A. […] PL10 has the best effect, which is 400-fold of that of LNPs in the control group MC3. The experiment also further illustrates that PL lipids have excellent cell transfection efficiency and stable effect in different cell lines.

[3] = Encapsulation efficiency of lipid nanoparticles (RiboGreen assay); type: physicochemical
Method: The total RNA concentration and the encapsulation efficiency were determined using a RiboGreen assay. Determination process included: taking a black 96-well plate, adding 50 μL TE buffer/Triton X to A1-A8/B1-B8, respectively (A1-A6/B1-B6 for the standard curve, A7-8/B7-8 for samples), then adding the RNA TE (Tris-EDTA) dilution solutions (2 ng/μL, 1 ng/μL, 0.5 ng/μL, 0.25 ng/μL, 0.125 ng/μL, 0 ng/μL) to the above wells A1-A6/B1-B6 as the standard curve, adding 50 μL nanoparticle dilution solution to A7-A8/B7-B8, and shaking at 37° C. for 15 min, subsequently, adding 100 μL of RiboGreen solution (diluted 400-fold with TE buffer) to each well, and shaking for 3-5 min, and detecting the fluorescence intensity of each well by a microplate reader at an excitation wavelength of 485 nm and an emission wavelength of 515 nm.

[4] = tested on: Fluc-mRNA (luciferase expression); assay: In vivo transfection efficiency of Fluc-mRNA lipid nanoparticles after intramuscular injection; set-up: species or system mice; details: for expression in vivo compared with control MC3 / in vivo transfection (expression, FIG. 5): 3 μg Fluc-mRNA/mouse; for Intramuscular injection (PL/MC3) expression strength level: ratio of expression PL/MC3; for in vivo transfection (expression, FIG. 5): weight ratio lipid nanoparticle/RNA 10:1, DOPE or DSPC group
Method: 6 h after intramuscular injection of mRNA LNPs, mice were injected intraperitoneally with 0.2 mL […] (20 mg/mL PBS solution). After 10 min, mice were anesthetized with isoflurane in oxygen in a ventilated anesthesia room and imaged with an imaging system (IVIS, PerkinElmer), and luminescence was quantified using Living Image software (PerkinElmer).

NIH-3T3 cells = assay: Transfection efficiency of lipid nanoparticles in NIH-3T3 cells; type: cell-based, murine
Method: The prepared cationic compounds (PL1, PL4, PL8, PL10, PL11, PL12, PL13, PL14, PL17, PL18, PL23, PL24, PL26, PL27, PL28, PL29, PL30, PL31, PL32, PL33, PL36, PL38, PL41, PL44, PL45, PL53, PL54, PL55, PL56, PL57, PL58, PL59, PL60, PL61, PL78, PL79, PL93, PL94, PL95, PL96, PL97, PL103), DOPE/DSPC, cholesterol, and DMG-PEG2000 are prepared with ethanol in a molar ratio of 35:16:46.5:2.5 to form the ethanol phase, and RNA is formulated into the aqueous phase with 50 mM citrate buffer solution at pH=4. Lipid nanoparticles are obtained by microfluidic mixing at aqueous phase:ethanol phase=3:1 (v/v), followed by dialysis purification in PBS at pH 7.4 overnight to remove ethanol.
as §1
FIG. 1A and FIG. 1B illustrate transfection of lipid nanoparticles of a DOPE group and a DSPC group in NIH3T3 cells according to some embodiments of the present disclosure. Specifically, for compounds PL1, PL4, PL6, PL8, PL10, PL11, PL12, lipid nanoparticles are prepared by DOPE and DSPC, respectively, according to an […] (Example 44). The transfection efficiency of these two groups of lipid nanoparticles in cells is first evaluated, and murine fibroblasts NIH-3T3 are selected for incubation (Example 47), and the results are shown in FIG. 1A and FIG. 1B. […] PL10, PL11, and PL12 all include two tertiary amino groups.

white adipocyte = assay: White adipocyte administration, expression relative to SM102; type: cell-based; details: ratio of expression PL/SM102
From the text: (§2) Finally, the expression levels of lipid nanoparticles with a plurality of tertiary amine groups from the embodiments of the present disclosure after intramuscular injection, white adipocyte administration, and intraperitoneal injection are summarized, and compared with lipid nanoparticles prepared from commercially available cationic lipids MC3 and SM102. […] However, the expression rates of the phosphatidylamine lipids with a plurality of tertiary amine groups from embodiments of the present disclosure are higher than that of SM102.

[5] = Summary of the strongest expressions over the administration routes; details: strongest level of the three administrations
From the text: as §2

adipose tissue = assay: Intraperitoneal injection of Fluc-mRNA LNPs, expression and distribution; type: in vivo, mice; details: ratio of expression PL/SM102
Method: FIG. 10 illustrates the effect of Fluc-mRNA LNPs composed of different structural cationic lipids on the mRNA delivery efficiency after intraperitoneal administration according to some embodiments of the present disclosure. Targeting and expression of PL lipids on adipose tissue after intraperitoneal administration is also evaluated. […] That is to say, the PL lipid structure with the plurality of tertiary amino group structures may enhance the selective targeting of visceral adipocytes. […]
as §2

joint cavity = assay: Intra-articular injection of Fluc-mRNA LNPs, luciferase expression in the joint cavity (IVIS); type: in vivo, ICR mice
Method: Images of luciferase expression in the joint cavity are detected with an IVIS imaging system at 6 h, 12 h, 24 h, 48 h, 72 h, and 96 h after intra-articular injection of 2 μg of Fluc-mRNA LNPs (PL10, PL14, and PL17, n=3).

For `CCCCCCCCCCCOC(=O)CCCCCN(CCO)CCCCCCCC(=O)OC(CCCCCCCC)CCCCCCCC` [SM102], the “expression compared with MC3” value (most cells and tissues) is listed as “at least ten-fold higher than that of MC3”.
With `CCCCC/C=C\C/C=C\CCCCCCCCOP(=O)(NCCN(CCCCCCCCCCCC)CCCN(C)C)OCCCCCCCC/C=C\C/C=C\CCCCC` [PL10] the particle size ([1]; weight ratio lipid nanoparticle/RNA 5:1) was 200 nm, the particle size ([1]; weight ratio lipid nanoparticle/RNA 15:1) was 150 nm and the “transfection efficiency relative to LNPs of control group MC3” value [2] was 400 fold. For the same molecule, the encapsulation efficiency ([3]; DOPE LNP, microfluidic preparation) was “around 50%”, the encapsulation efficiency ([3]; weight ratio cationic PL lipid/RNA 5:1 (lowest lipid)) was “more than 30%” and the encapsulation efficiency ([3]; weight ratio cationic PL lipid/RNA 15:1 (most lipid)) was “about 70%”. The “expression in vivo compared with control MC3” value ([4]; DOPE group, weight ratio 10:1) was “better than that of control MC3”, the “Intramuscular injection (PL/MC3) expression strength level” value (from here on “Intramuscular injection”) [4] was “A (A: ≥2)” and the “in vivo fluorescence signal” value ([4]; weight ratio cationic lipid/RNA 15:1, 3 μg Fluc-mRNA) was “no fluorescence signal”. For the same molecule, the “in vivo transfection (expression, FIG. 5)” value (from here on “in vivo transfection”) [4] was “expressed”, the “in vivo expression relative to MC3 LNP” value ([4]; weight ratio lipid nanoparticles/RNA 5:1, 3 μg Fluc-mRNA) was 3 fold and the “in vivo expression relative to MC3 LNP” value ([4]; weight ratio lipid nanoparticles/RNA 10:1, 3 μg Fluc-mRNA) was 10 fold. For the same molecule, the “transfection efficiency relative to MC3 LNP” value (NIH-3T3 cells; DOPE group LNP) was 22 fold, the “White adipocyte administration (PL/SM102) expression strength level” value (shortened to “White adipocyte administration”) (white adipocyte) was “C (C: ≥0.1 and <1)” and the “Summary of the strongest expressions” value [5] was “A (A: ≥2)”. The “Intraperitoneal injection (PL/SM102) expression strength level” value (adipose tissue) was “D (D: <0.1)”.
In the case of `CCCCC/C=C\C/C=C\CCCCCCCCOP(=O)(NCCN(CCCCCCCCCCCC)CCCN(C)C)OCCCC(=O)OCCCCCCCCCCC` (centres unmarked) [PL11], the “expression in vivo compared with control MC3” value ([4]; DOPE group, weight ratio 10:1) is reported as “close to that of MC3”, the “Intramuscular injection” value [4] is reported as “C (C: ≥0.1 and <1)” and the “in vivo transfection” value [4] is reported as “expressed”. The “transfection efficiency relative to MC3 LNP” value (NIH-3T3 cells; DSPC group LNP) was 3 fold, the “White adipocyte administration” value (white adipocyte) was “C (C: ≥0.1 and <1)” and the “Summary of the strongest expressions” value [5] was “C (C: ≥0.1 and <1)”.
For `CCCCC/C=C\C/C=C\CCCCCCCCOP(=O)(NCCCN1CCN(CCCN(CCCCCCCCCCCC)CCCCCCCCCCCC)CC1)OCCCCCCCC/C=C\C/C=C\CCCCC` [PL14], the nanoparticle particle size ([1]; optimized formulation: decreased proportion of PEG, increased volume of aqueous phase) was “around 200 nm”, the “expression in vivo compared with control MC3” value ([4]; DOPE group, weight ratio 10:1) was “better than that of control MC3” and the “enhancement of in vivo expression with respect to control MC3” value ([4]; DOPE group, weight ratio 10:1, 3 g Fluc-mRNA/mouse) was “an order of magnitude enhancement”. The “Intramuscular injection” value [4] was “A (A: ≥2)”, the “in vivo transfection” value [4] was “expressed” and the “White adipocyte administration” value (white adipocyte) was “C (C: ≥0.1 and <1)”. The “Summary of the strongest expressions” value [5] was “A (A: ≥2)”, the “expression efficiency after intra-articular injection” value (joint cavity; 2 μg Fluc-mRNA LNPs, 6 h to 96 h) was “higher and more long-lasting expression efficiencies compared to both PL10 and PL17 LNPs” and the “distribution and expression outside the joint after intra-articular injection” value (joint cavity; liver) was “distributed and expressed non-specifically in the liver”.
